{
  "source": "patent US20120100230A1",
  "about": "“Systems, Devices, and/or Methods for Managing Crops” (DHARMA IP, LLC, priority 2010, published 2012)",
  "experiment": "Solubility of beta-cyclodextrin in water containing ClO2 (slurry test)",
  "assay_type": "physicochemical",
  "settings": "100 g slurry, 5% beta-cyclodextrin (w/w) in 8000 ppm ClO2 vs ultrapure water, 200 rpm, 3 days",
  "description": "However indirect evidence for the complex has been observed. Beta-cyclodextrin has a known solubility in water. If the water contains a guest substance that produces a cyclodextrin complex more soluble than the cyclodextrin alone, more of the cyclodextrin will dissolve into water containing that guest than into plain water. This enhanced solubility has been observed for beta-cyclodextrin in water containing ClO2. Two separate 100 g slurries of beta-cyclodextrin solutions were prepared. […] Both slurries were mixed at 200 rpm for 3 days, at which time the undissolved beta-cyclodextrin was isolated from both solutions and dried for 2 days in a desiccator. […] It is believed, by extension, that ClO2 might form complexes with gamma-cyclodextrin and/or chemically derivatized versions of the natural (alpha- (“α”), beta- (“β”), and gamma- (“γ”)) cyclodextrins. In the case of beta- and/or gamma-cyclodextrin and/or other cyclodextrins having internal cavities larger than that of alpha-cyclodextrin, it might be that the complex(es) formed with ClO2 will incorporate numbers of ClO2 molecules greater than one per cyclodextrin molecule.",
  "data": [
    {"compound": "OC[C@H]1O[C@@H]2O[C@H]3[C@H](O)[C@@H](O)[C@@H](O[C@H]4[C@H](O)[C@@H](O)[C@@H](O[C@H]5[C@H](O)[C@@H](O)[C@@H](O[C@H]6[C@H](O)[C@@H](O)[C@@H](O[C@H]7[C@H](O)[C@@H](O)[C@@H](O[C@H]8[C@H](O)[C@@H](O)[C@@H](O[C@H]1[C@H](O)[C@H]2O)O[C@@H]8CO)O[C@@H]7CO)O[C@@H]6CO)O[C@@H]5CO)O[C@@H]4CO)O[C@@H]3CO", "note": "[beta-cyclodextrin]", "values": [
      {"measurement": "weight of dried undissolved beta-cyclodextrin from ClO2 containing slurry less than the control slurry", "result": 0.32, "unit": "g"}
    ]}
  ]
}
